Laboratory results as given in ChEMBL document CHEMBL1201862, “PubChem BioAssay data set” (2004).
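Compound exposure: 48 hours, 5 concentrations, 96-well plates. Here, GI50 denotes the concentration required for 50% inhibition of growth.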 Active and inactive are the calls of the source. No stated cut-off is given here; in the data, active = GI50 up to about 1.1 µM and inactive = higher.

Columns and labels:
Assay in all cases: NCI tumour cell line growth inhibition, 48 h
[1] = tested on: A549
[2] = tested on: RXF 393
[3] = tested on: U-251
[4] = tested on: MDA-MB-231
[5] = tested on: IGROV-1
[6] = tested on: MDA-MB-435
[7] = tested on: NCI-H460
[8] = tested on: SNB-75
[9] = tested on: CCRF-CEM
[10] = tested on: SF-268
[11] = tested on: M14
[12] = tested on: SW-620
[13] = tested on: HCT-116
[14] = tested on: Malme-3M
[15] = tested on: SR
[16] = tested on: 786-0
[17] = tested on: SK-MEL-28
[18] = tested on: MOLT-4
[19] = tested on: TK-10
[20] = tested on: NCI-H23
[21] = tested on: OVCAR-4
[22] = tested on: MDA-N
[23] = tested on: OVCAR-3
[24] = tested on: Hs-578T
[25] = tested on: HOP-62
[26] = tested on: SF-539
[27] = tested on: UACC-257
[28] = tested on: HOP-92
[29] = tested on: SK-OV-3
[30] = tested on: OVCAR-8
[31] = tested on: HT-29
[32] = tested on: NCI/ADR-RES
[33] = tested on: SK-MEL-2
[34] = tested on: DU-145
[35] = tested on: COLO 205
[36] = tested on: SF-295
[37] = tested on: T47D
[38] = tested on: NCI-H522
[39] = tested on: HL-60
[40] = tested on: PC-3
[41] = tested on: SNB-19
[42] = tested on: SK-MEL-5
[43] = tested on: LOX IMVI
[44] = tested on: KM12
[45] = tested on: K562
[46] = tested on: EKVX
[47] = tested on: HCT-15
[48] = tested on: SN12C
[49] = tested on: OVCAR-5
[50] = tested on: RPMI-8226
[51] = tested on: BT-549
[52] = tested on: NCI-H226
[53] = tested on: HCC 2998
[54] = tested on: CAKI-1
[55] = tested on: MCF7
[56] = tested on: UACC-62
[57] = tested on: ACHN
[58] = tested on: A498
[59] = tested on: UO-31

O=C(O)/C(=C\c1ccncc1)c1cccc2ccccc12
GI50 [1]: 90.6 µM (inactive) | GI50 [2]: > 100 µM (inactive) | GI50 [3]: > 100 µM (inactive) | GI50 [4]: > 100 µM (inactive) | GI50 [5]: > 100 µM (inactive) | GI50 [6]: > 100 µM (inactive) | GI50 [7]: > 100 µM (inactive) | GI50 [8]: > 100 µM (inactive) | GI50 [9]: > 100 µM (inactive) | GI50 [10]: > 100 µM (inactive) | GI50 [11]: > 100 µM (inactive) | GI50 [12]: > 100 µM (inactive) | GI50 [13]: > 100 µM (inactive) | GI50 [14]: > 100 µM (inactive) | GI50 [15]: > 100 µM (inactive) | GI50 [16]: > 100 µM (inactive) | GI50 [17]: > 100 µM (inactive) | GI50 [18]: > 100 µM (inactive) | GI50 [19]: > 100 µM (inactive) | GI50 [20]: > 100 µM (inactive) | GI50 [21]: > 100 µM (inactive) | GI50 [22]: > 100 µM (inactive) | GI50 [23]: > 100 µM (inactive) | GI50 [24]: > 100 µM (inactive) | GI50 [25]: > 100 µM (inactive) | GI50 [26]: > 100 µM (inactive) | GI50 [27]: 0.145 µM (active) | GI50 [28]: > 100 µM (inactive) | GI50 [29]: > 100 µM (inactive) | GI50 [30]: > 100 µM (inactive) | GI50 [31]: > 100 µM (inactive) | GI50 [32]: > 100 µM (inactive) | GI50 [33]: > 100 µM (inactive) | GI50 [34]: > 100 µM (inactive) | GI50 [35]: > 100 µM (inactive) | GI50 [36]: > 100 µM (inactive) | GI50 [37]: > 100 µM (inactive) | GI50 [38]: > 100 µM (inactive) | GI50 [39]: > 100 µM (inactive) | GI50 [40]: > 100 µM (inactive) | GI50 [41]: > 100 µM (inactive) | GI50 [42]: > 100 µM (inactive) | GI50 [43]: > 100 µM (inactive) | GI50 [44]: > 100 µM (inactive) | GI50 [45]: > 100 µM (inactive) | GI50 [46]: > 100 µM (inactive) | GI50 [47]: > 100 µM | GI50 [48]: 44.1 µM (inactive) | GI50 [49]: > 100 µM (inactive) | GI50 [50]: > 100 µM (inactive) | GI50 [51]: > 100 µM (inactive)

CNC(=O)N(C)C(=O)c1ccccc1C(=O)N(C)C(=O)NC
GI50 [1]: > 10 µM (inactive) | GI50 [52]: > 10 µM (inactive) | GI50 [53]: > 10 µM (inactive) | GI50 [2]: > 10 µM (inactive) | GI50 [3]: > 10 µM (inactive) | GI50 [4]: > 10 µM (inactive) | GI50 [5]: > 10 µM (inactive) | GI50 [7]: > 10 µM (inactive) | GI50 [54]: > 10 µM (inactive) | GI50 [8]: > 10 µM (inactive) | GI50 [9]: > 10 µM (inactive) | GI50 [10]: > 10 µM (inactive) | GI50 [11]: > 10 µM (inactive) | GI50 [12]: > 10 µM (inactive) | GI50 [13]: > 10 µM (inactive) | GI50 [14]: > 10 µM (inactive) | GI50 [15]: > 10 µM (inactive) | GI50 [16]: > 10 µM (inactive) | GI50 [17]: > 10 µM (inactive) | GI50 [18]: > 10 µM (inactive) | GI50 [19]: > 10 µM (inactive) | GI50 [20]: > 10 µM (inactive) | GI50 [21]: > 10 µM (inactive) | GI50 [22]: > 10 µM (inactive) | GI50 [23]: > 10 µM (inactive) | GI50 [24]: > 10 µM (inactive) | GI50 [25]: > 10 µM (inactive) | GI50 [26]: > 10 µM (inactive) | GI50 [55]: > 10 µM (inactive) | GI50 [27]: > 10 µM (inactive) | GI50 [28]: > 10 µM (inactive) | GI50 [29]: > 10 µM (inactive) | GI50 [30]: > 10 µM (inactive) | GI50 [31]: > 10 µM (inactive) | GI50 [32]: > 10 µM (inactive) | GI50 [33]: > 10 µM (inactive) | GI50 [34]: > 10 µM (inactive) | GI50 [35]: > 10 µM (inactive) | GI50 [36]: > 10 µM (inactive) | GI50 [37]: > 10 µM (inactive) | GI50 [56]: > 10 µM (inactive) | GI50 [57]: > 10 µM (inactive) | GI50 [38]: > 10 µM (inactive) | GI50 [39]: > 10 µM (inactive) | GI50 [40]: > 10 µM (inactive) | GI50 [41]: > 10 µM (inactive) | GI50 [42]: > 10 µM (inactive) | GI50 [43]: > 10 µM (inactive) | GI50 [58]: > 10 µM (inactive) | GI50 [44]: > 10 µM (inactive) | GI50 [59]: > 10 µM (inactive) | GI50 [45]: > 10 µM (inactive) | GI50 [46]: > 10 µM (inactive) | GI50 [47]: > 10 µM | GI50 [48]: > 10 µM (inactive) | GI50 [49]: > 10 µM (inactive) | GI50 [50]: > 10 µM (inactive) | GI50 [51]: > 10 µM (inactive)
